From patent US11802113B2, “Substituted pyrazole compounds, compositions containing same, and use thereof” (Shenzhen TargetRx, Inc., priority 2019, dated 2023) come the findings set out here.

Data set [1] in a line: Metabolic stability evaluation, rat liver microsome. Particulars: SD, liver microsomes, pH 7.4, rat liver microsome 0.5 mg/mL, compound 1 μM, NADPH, 37° C.; for microsomal CLint at 1 μM: read-out: RLM CL; for half-life at 1 μM: read-out: RLM T1/2. It is filed as in vitro ADME. The protocol:
(§1) (4) Metabolic Stability Evaluation
(§2) Microsome experiment: human liver microsome: 0.5 mg/mL, Xenotech; rat liver microsome: 0.5 mg/mL, Xenotech; coenzyme (NADPH/NADH): 1 mM, Sigma Life Science; magnesium chloride: 5 mM, 100 mM phosphate buffer (pH 7.4).
(§3) Preparation of stock solution: a certain amount of the example compound powder and control compound powder were accurately weighed, and respectively dissolved to 5 mM with DMSO.
(§4) Preparation of phosphate buffer (100 mM, pH7.4): 150 mL of 0.5M potassium dihydrogen phosphate and 700 mL of 0.5M dipotassium hydrogen phosphate prepared beforehand were mixed, with pH of the mixture adjusted to 7.4 with 0.5M dipotassium hydrogen phosphate solution. Before use, the mixture was diluted by 5 folds with ultrapure water and magnesium chloride was added to obtain the phosphate buffer (100 mM), which contains 100 mM potassium phosphate, 3.3 mM magnesium chloride, and has pH 7.4.
(§5) NADPH regeneration system solution (containing 6.5 mM NADP, 16.5 mM G-6-P, 3 U/mL G-6-P D, 3.3 mM magnesium chloride) was prepared, and placed on wet ice before use.
(§6) Preparation of stop solution: a solution of 50 ng/mL propranolol hydrochloride and 200 ng/mL tolbutamide (internal standard) in acetonitrile. 25057.5 μL of phosphate buffer (pH 7.4) was taken into a 50 mL centrifuge tube, added with 812.5 μL of human liver microsome, and mixed well to obtain a liver microsome diluent with a protein concentration of 0.625 mg/mL. 25057.5 μL of phosphate buffer (pH 7.4) was taken into a 50 mL centrifuge tube, added with 812.5 μL of SD rat liver microsome, and mixed well to obtain a liver microsome diluent with a protein concentration of 0.625 mg/mL.
(§7) Incubation of the samples: the stock solutions of the corresponding compounds were respectively diluted to 0.25 mM with an aqueous solution containing 70% acetonitrile to obtain working solutions for later use. 398 μL of human liver microsome and rat liver microsome diluents were respectively taken and added to a 96-well incubation plate (N=2), added with 2 μL of 0.25 mM working solution respectively, and mixed well.
Determination of metabolic stability: 300 μL of pre-cooled stop solution was added to each well of a 96-well deep-well plate, and the plate was placed on ice as a stop plate. […]
Data analysis: the peak areas of the corresponding compound and internal standard were detected through the LC-MS/MS system, and the ratio of the peak area of the compound to the internal standard was calculated. […]
The compounds of the present invention and the corresponding non-deuterated compounds were simultaneously tested for comparison and evaluated for the metabolic stability in human and rat liver microsomes. […]
In general terms: Liver microsomes are vesicles of endoplasmic reticulum, rich in cytochrome P450 enzymes.

Data set [2] in a line: Metabolic stability evaluation, human liver microsome. Type of data set: in vitro ADME. Particulars: liver microsomes, pH 7.4, human liver microsome 0.5 mg/mL, compound 1 μM, NADPH, 37° C.; for microsomal CLint at 1 μM: read-out: HLM CL; for half-life at 1 μM: read-out: HLM T1/2. The protocol: as §1, §2, §3, §4, §5, §6, §7
Determination of metabolic stability: 300 μL of pre-cooled stop solution was added to each well of a 96-well deep-well plate, and the plate was placed on ice as a stop plate. The 96-well incubation plate and the NADPH regeneration system were placed in a 37° C. water bath, shaken at 100 rpm, and pre-incubated for 5 minutes. 80 μL of incubation solution was taken out of each well of the incubation plate and added to the stop plate, mixed well, and supplemented with 20 μL of NADPH regeneration system solution to obtain the 0 min sample. Then 80 μL of NADPH regeneration system solution was added to each well of the incubation plate to initiate the reaction and start timing. The reaction concentration of the corresponding compound was 1 μM, and the protein concentration was 0.5 mg/mL. At 10, 30, and 90 minutes of reaction, 100 μL of the reaction solution was taken and added to the stop plate, and vortexed for 3 minutes to stop the reaction. The stop plate was centrifuged at 5000×g for 10 min at 4° C. 100 μL of supernatant was taken to a 96-well plate pre-added with 100 μL of distilled water, mixed well, and subjected to sample analysis by LC-MS/MS.
Data analysis: the peak areas of the corresponding compound and internal standard were detected through the LC-MS/MS system, and the ratio of the peak area of the compound to the internal standard was calculated. The natural logarithm of the remaining percentage of the compound was plotted against time to measure the slope and calculate t1/2 and CLint according to the following equations, where V/M is equal to 1/protein concentration.
The compounds of the present invention and the corresponding non-deuterated compounds were simultaneously tested for comparison and evaluated for the metabolic stability in human and rat liver microsomes. The non-deuterated compound Darolutamide was used as the control.

Structures are written as SMILES.

For `CC(O)c1cc(C(=O)N[C@@H](C)Cn2ccc(-c3ccc(C#N)c(Cl)c3)n2)[nH]n1` (stereo partly drawn) [Darolutamide, N—((S)-1-(3-(3-chloro-4-cyanophenyl)-1H-pyrazol-1-yl)-prop-2-yl)-5-(1-hydroxyethyl)-1H-pyrazole-3-carboxamide, reference compound], the results for the microsomal CLint at 1 μM in data set [1] and in data set [2] were 12.2 µL/min/mg and 8.5 µL/min/mg, respectively. For the same compound, the half-life at 1 μM in data set [1] stood at 1.9 h; in data set [2] it was 2.72 h.
Take `[2H]C(C)(O)c1cc(C(=O)N[C@@H](C)Cn2ccc(-c3ccc(C#N)c(Cl)c3)n2)n[nH]1` (stereo partly drawn) [Example 1, N—((S)-1-(3-(3-chloro-4-cyanophenyl)-1H-pyrazol-1-yl)prop-2-yl)-5-(1-hydroxylethyl-1-d)-1H-pyrazole-3-carboxamide]: in data set [2], the microsomal CLint at 1 μM amounted to 6.2 µL/min/mg and the half-life at 1 μM came to 3.7 h.
The corresponding values for `[2H]C([2H])([2H])C(O)c1cc(C(=O)N[C@@H](C)Cn2ccc(-c3ccc(C#N)c(Cl)c3)n2)n[nH]1` (stereo partly drawn) [Example 2, N—((S)-1-(3-(3-chloro-4-cyanophenyl)-1H-pyrazol-1-yl)prop-2-yl)-5-(1-hydroxylethyl-2,2,2-d3)-1H-pyrazole-3-carboxamide] are 9.1 µL/min/mg and 2.55 h.
For `[2H]C([2H])([2H])C([2H])(O)c1cc(C(=O)N[C@@H](C)Cn2ccc(-c3ccc(C#N)c(Cl)c3)n2)n[nH]1` (stereo partly drawn) [Example 3, N—((S)-1-(3-(3-chloro-4-cyanophenyl)-1H-pyrazol-1-yl)prop-2-yl)-5-(1-hydroxylethyl-1,2,2,2-d4)-1H-pyrazole-3-carboxamide], in data set [2], the microsomal CLint at 1 μM is 4 µL/min/mg and the half-life at 1 μM is 5.83 h.
The corresponding values for `[2H]C([2H])([C@H](C)NC(=O)c1cc(C(C)O)[nH]n1)n1ccc(-c2ccc(C#N)c(Cl)c2)n1` (stereo partly drawn) [Example 4, N—((S)-1-(3-(3-chloro-4-cyanophenyl)-1H-pyrazol-1-yl)prop-2-yl-1,1-d2)-5-(1-hydroxyethyl)-1H-pyrazole-3-carboxamide] are 8.5 µL/min/mg and 2.7 h.
Regarding `[2H]C(C)(O)c1cc(C(=O)N[C@@H](C)C([2H])([2H])n2ccc(-c3ccc(C#N)c(Cl)c3)n2)n[nH]1` (stereo partly drawn) [Example 5, N—((S)-1-(3-(3-chloro-4-cyanophenyl)-1H-pyrazol-1-yl)prop-2-yl-1,1-d2)-5-(1-hydroxyethyl-1-d)-1H-pyrazole-3-carboxamide], in data set [2], the microsomal CLint at 1 μM is 4.3 µL/min/mg and the half-life at 1 μM was 5.36 h.
The corresponding values for `[2H]C([2H])([2H])C(O)c1cc(C(=O)N[C@@H](C)C([2H])([2H])n2ccc(-c3ccc(C#N)c(Cl)c3)n2)n[nH]1` (stereo partly drawn) [Example 6, N—((S)-1-(3-(3-chloro-4-cyanophenyl)-1H-pyrazol-1-yl)prop-2-yl-1,1-d2)-5-(1-hydroxyethyl-2,2,2-d3)-1H-pyrazole-3-carboxamide] are 6.4 µL/min/mg and 3.62 h.
`[2H]C([2H])([C@H](C)NC(=O)c1cc(C([2H])(O)C([2H])([2H])[2H])[nH]n1)n1ccc(-c2ccc(C#N)c(Cl)c2)n1` (stereo partly drawn) [Example 7, N—((S)-1-(3-(3-chloro-4-cyanophenyl)-1H-pyrazol-1-yl)prop-2-yl-1,1-d2)-5-(1-hydroxyethyl-1,2,2,2-d4)-1H-pyrazole-3-carboxamide]: in data set [1], the microsomal CLint at 1 μM amounted to 7.1 µL/min/mg and the half-life at 1 μM was 3.25 h. In addition, in data set [2], the microsomal CLint at 1 μM was 6.9 µL/min/mg and the half-life at 1 μM was found to be 3.36 h.
Turning to `[2H][C@](C)(Cn1ccc(-c2ccc(C#N)c(Cl)c2)n1)NC(=O)c1cc(C(C)O)[nH]n1` (stereo partly drawn) [Example 8, N—((S)-1-(3-(3-chloro-4-cyanophenyl)-1H-pyrazol-1-yl)prop-2-yl-2-d)-5-(1-hydroxyethyl)-1H-pyrazole-3-carboxamide], in data set [2], the microsomal CLint at 1 μM came out at 7.3 µL/min/mg and the half-life at 1 μM turned out to be 3.17 h.
With `[2H]C([2H])([2H])[C@H](NC(=O)c1cc(C(C)O)[nH]n1)C([2H])([2H])n1ccc(-c2ccc(C#N)c(Cl)c2)n1` (stereo partly drawn) [Example 9, N—((S)-1-(3-(3-chloro-4-cyanophenyl)-1H-pyrazol-1-yl)prop-2-yl-1,1,3,3,3-d5)-5-(1-hydroxyethyl)-1H-pyrazole-3-carboxamide], in data set [2], the microsomal CLint at 1 μM stood at 8.1 µL/min/mg and the half-life at 1 μM amounted to 2.85 h.
For `[2H]C(C)(O)c1cc(C(=O)N[C@@H](C([2H])([2H])[2H])C([2H])([2H])n2ccc(-c3ccc(C#N)c(Cl)c3)n2)n[nH]1` (stereo partly drawn) [Example 10, N—((S)-1-(3-(3-chloro-4-cyanophenyl)-1H-pyrazol-1-yl)prop-2-yl-1,1,3,3,3-d5)-5-(1-hydroxyethyl-1-d)-1H-pyrazole-3-carboxamide], in data set [2], the microsomal CLint at 1 μM is 4.4 µL/min/mg and the half-life at 1 μM was 5.29 h.
